Read-outs that look alike come from different tables or passages of the source.
Key:
[1] = biological target: T1, Pim1 kinase (Homo sapiens, UniProt P11309); assay: KinaseGlo Pim1 ATP depletion assay; format: biochemical; conditions: Table 4, 2.5 nM PIM1, 20 μM ATP, 40 μM BAD peptide
Protocol: The activity of PIM1 is measured using a luciferase-luciferin based ATP detection reagent to quantify ATP depletion resulting from kinase-catalyzed phosphoryl transfer to a peptide substrate. Compounds to be tested are dissolved in 100% DMSO and directly distributed into white 384-well plates at 0.5 μl per well. […] After 15 minutes, 10 μl of 40 μM ATP in assay buffer is added. […] The reaction is performed until approximately 50% of the ATP is depleted, then stopped with the addition of 20 μl KinaseGlo Plus (Promega Corporation) solution. The stopped reaction is incubated for 10 minutes and the remaining ATP detected via luminescence on the Victor2 (Perkin Elmer).

[2] = biological target: T2, Pim2 kinase (Homo sapiens, UniProt Q9P1W9); assay: KinaseGlo Pim2 ATP depletion assay; format: biochemical; conditions: Table 4, 5 nM PIM2, 4 μM ATP, 10 μM BAD peptide
Protocol: (§1) The activity of PIM2 is measured using a luciferase-luciferin based ATP detection reagent to quantify ATP depletion resulting from kinase-catalyzed phosphoryl transfer to a peptide substrate. Compounds to be tested are dissolved in 100% DMSO and directly distributed into white 384-well plates at 0.5 μl per well. […] After 15 minutes, 10 μl of 8 μM ATP in assay buffer is added. Final assay concentrations are 5 nM PIM2, 4 μM ATP, 10 μM BAD peptide and 2.5% DMSO. The reaction is performed until approximately 50% of the ATP is depleted, then stopped with the addition of 20 μl KinaseGlo Plus (Promega Corporation) solution. The stopped reaction is incubated for 10 minutes and the remaining ATP detected via luminescence on the Victor2 (Perkin Elmer).

[3] = biological target: T3, Pim3 kinase (Homo sapiens, UniProt Q86V86); assay: KinaseGlo Pim3 ATP depletion assay; format: biochemical; conditions: Table 4, 40 μM ATP, 100 μM BAD peptide
Protocol: as §1, with “of PIM3” for “of PIM2”, “of 80” for “of 8”, “nM PIM1, 40” for “nM PIM2, 4”, “ATP, 100” for “ATP, 10”, “stopped by” for “stopped with”

[4] = tested on: KMS11 (human myeloma cell line); assay: Cell proliferation assay (CellTiter-Glo) in KMS11 cells; format: cell-based; conditions: KMS-11, 72 h, read-out: KMS11-luc EC50
Summary of the method: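 KMS11 cells at 2000 per well in IMDM/10% FBS were exposed to compound for 3 days. Viability was read by CellTiter-Glo luminescence.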

[5] = biological target: T1, Pim1 kinase; assay: Pim1 AlphaScreen assay (high ATP)
[6] = biological target: T2, Pim2 kinase; assay: Pim2 AlphaScreen assay (high ATP)
[7] = biological target: T3, Pim3 kinase; assay: Pim3 AlphaScreen assay (high ATP)

T1 sequence (P11309 whole entry): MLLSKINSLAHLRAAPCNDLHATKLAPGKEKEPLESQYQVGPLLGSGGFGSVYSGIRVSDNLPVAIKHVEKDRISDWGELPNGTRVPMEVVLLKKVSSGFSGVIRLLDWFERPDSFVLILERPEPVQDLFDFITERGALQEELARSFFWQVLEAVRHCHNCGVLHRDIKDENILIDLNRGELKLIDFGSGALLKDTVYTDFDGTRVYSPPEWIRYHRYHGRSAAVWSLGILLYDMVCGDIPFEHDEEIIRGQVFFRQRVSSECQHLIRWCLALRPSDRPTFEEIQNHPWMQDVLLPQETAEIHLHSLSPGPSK
T2 sequence (Q9P1W9 whole entry): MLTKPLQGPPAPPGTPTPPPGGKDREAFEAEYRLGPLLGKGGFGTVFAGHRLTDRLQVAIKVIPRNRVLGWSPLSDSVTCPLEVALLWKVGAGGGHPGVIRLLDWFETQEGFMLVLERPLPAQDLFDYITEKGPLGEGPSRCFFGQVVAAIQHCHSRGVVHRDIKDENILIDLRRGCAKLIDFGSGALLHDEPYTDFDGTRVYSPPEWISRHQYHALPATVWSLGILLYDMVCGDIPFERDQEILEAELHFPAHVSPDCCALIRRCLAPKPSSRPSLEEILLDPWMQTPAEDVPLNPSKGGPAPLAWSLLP

Structure (SMILES) | IC50 [1] | IC50 [2] | IC50 [3] | EC50 ([4]; Table 4, 3 days) | EC50 ([4]; Table 5, 3 days) | IC50 [5] | IC50 [6] | IC50 [7]
CC[C@]1(O)[C@H](C)C[C@H](c2ccncc2NC(=O)c2nc(-c3c(F)cccc3F)ncc2N)C[C@@H]1O [Example 35, 5-amino-2-(2,6-difluorophenyl)-N-(4-((1S,3S,4S,5R)-4-ethyl-3,4-dihydroxy-5-methylcyclohexyl)pyridin-3-yl) pyrimidine-4-carboxamide] | 49.5 nM | 676 nM | 150 nM | ≥ 10000 nM | – | – | – | –
C[C@H]1C[C@@H](c2ccncc2NC(=O)c2cncc(-c3ccccc3)n2)C[C@@H](O)[C@]1(C)O [Example 36, N-(4-((1R,3R,4R,5S)-3,4-dihydroxy-4,5-dimethylcyclohexyl)pyridin-3-yl)-6-phenylpyrazine-2-carboxamide] | 525 nM | 5410 nM | 307 nM | – | – | – | – | –
C[C@H]1C[C@@H](c2ccncc2NC(=O)c2nc(-c3ccccc3)cnc2N)C[C@@H](O)[C@]1(C)O [Example 37, 3-amino-N-(4-((1R,3R,4R,5S)-3,4-dihydroxy-4,5-dimethylcyclohexyl)pyridin-3-yl)-6-phenylpyrazine-2-carboxamide] | 1.3 nM | 4.9 nM | 2.5 nM | – | – | – | – | –
C[C@H]1C[C@@H](c2ccncc2NC(=O)c2nc(Br)ccc2N)C[C@@H](O)[C@]1(C)O [Example 38, 3-amino-6-bromo-N-(4-((1R,3R,4R,5S)-3,4-dihydroxy-4,5-dimethylcyclohexyl)pyridin-3-yl) picolinamide] | 3.6 nM | 24.3 nM | 9.3 nM | ≥ 10000 nM | – | – | – | –
C[C@H]1C[C@@H](c2ccncc2NC(=O)c2ccnc(-c3c(F)cccc3F)n2)C[C@@H](O)[C@@]1(O)CO [Example 39, 2-(2,6-difluorophenyl)-N-(4-((1R,3R,4S,5S)-3,4-dihydroxy-4-(hydroxymethyl)-5-methylcyclohexyl)pyridin-3-yl) pyrimidine-4-carboxamide] | 4.7 nM | 25.5 nM | 4.5 nM | ≥ 10000 nM | – | – | – | –
C[C@@H]1C[C@H](c2ccncc2NC(=O)c2ccnc(-c3c(F)cccc3F)n2)C[C@H](O)[C@]1(O)CO [Example 40, 2-(2,6-difluorophenyl)-N-(4-((1S,3S,4R,5R)-3,4-dihydroxy-4-(hydroxymethyl)-5-methylcyclohexyl)pyridin-3-yl) pyrimidine-4-carboxamide] | 209 nM | 2880 nM | 385 nM | ≥ 10000 nM | – | – | – | –
CC[C@]1(O)[C@H](C)C[C@H](c2ccncc2NC(=O)c2ccc(F)c(-c3c(F)cccc3F)n2)C[C@@H]1O [Example 42, 6-(2,6-difluorophenyl)-N-(4-((1S,3S,4S,5R)-4-ethyl-3,4-dihydroxy-5-methylcyclohexyl)pyridin-3-yl)-5-fluoropicolinamide] | 44.6 nM | 846 nM | 434 nM | ≥ 10000 nM | – | – | – | –
CC(=O)OC[C@]1(O)[C@H](C)C[C@H](c2ccncc2NC(=O)c2ccc(F)c(-c3c(F)cccc3F)n2)C[C@@H]1O [Example 44, ((1R,2S,4S,6R)-4-(3-(6-(2,6-difluorophenyl)-5-fluoropicolinamido)pyridin-4-yl)-1,2-dihydroxy-6-methylcyclohexyl) methylacetate] | 8.6 nM | 44.2 nM | 29.3 nM | ≥ 10000 nM | – | – | – | –
C[C@H]1C[C@@H](c2ccncc2NC(=O)c2ccc(F)c(-c3c(F)ccc(C#N)c3F)n2)C[C@@H](O)[C@]1(C)O [Example 46, 6-(3-cyano-2,6-difluorophenyl)-N-(4-((1R,3R,4R,5S)-3,4-dihydroxy-4,5-dimethylcyclohexyl)pyridin-3-yl)-5-fluoropicolinamide] | 1.4 nM | 10.9 nM | 3.5 nM | ≥ 10000 nM | – | – | – | –
C[C@H]1C[C@@H](c2ccncc2NC(=O)c2nc(-c3ccc(F)cn3)ccc2N)C[C@@H](O)[C@]1(C)O [Example 134, 5-amino-N-(4-((1R,3R,4R,5S)-3,4-dihydroxy-4,5-dimethylcyclohexyl)pyridin-3-yl)-5′-fluoro-2,2′-bipyridine-6-carboxamide] | – | 50.7 nM | – | 4150 nM | 4150 nM | 78.7 nM | 14300 nM | 3390 nM
C[C@H]1C[C@@H](c2ccncc2NC(=O)c2nc(-c3cccc(F)n3)ccc2N)C[C@@H](O)[C@]1(C)O [Example 135, 5-amino-N-(4-((1R,3R,4R,5S)-3,4-dihydroxy-4,5-dimethylcyclohexyl)pyridin-3-yl)-6′-fluoro-2,2′-bipyridine-6-carboxamide] | – | 14.2 nM | – | ≥ 10000 nM | > 10000 nM | 33.5 nM | 5690 nM | 1130 nM

Now those with a lower IC50 [2], led by results:

IC50 [1] | IC50 [2] | IC50 [3] | EC50 ([4]; Table 4, 3 days) | EC50 ([4]; Table 5, 3 days) | IC50 [5] | IC50 [6] | IC50 [7] | Structure (SMILES)
0.3 nM | 1.5 nM | 1.3 nM | 1070 nM | – | – | – | – | C[C@H]1C[C@@H](c2ccncc2NC(=O)c2ccc(F)c(-c3c(F)cccc3F)n2)C[C@@H](O)C1(O)CO (stereo in doubt) [Example 59, 6-(2,6-difluorophenyl)-N-(4-((1R,3R,4R,5S)-3,4-dihydroxy-4-(hydroxymethyl)-5-methylcyclohexyl)pyridin-3-yl)-5-fluoropicolinamide]
0.4 nM | 1 nM | 1.4 nM | 880 nM | – | – | – | – | CC[C@]1(O)[C@H](O)C[C@H](c2ccncc2NC(=O)c2nc(-c3c(F)cccc3F)ccc2N)C[C@@H]1C [Example 32, 3-amino-6-(2,6-difluorophenyl)-N-(4-((1R,3R,4R,5S)-4-ethyl-3,4-dihydroxy-5-methylcyclohexyl)pyridin-3-yl) picolinamide]
0.5 nM | 1.1 nM | 1.8 nM | 580 nM | – | – | – | – | CC[C@]1(O)[C@H](O)C[C@H](c2ccncc2NC(=O)c2nc(-c3c(F)cccc3F)c(F)cc2N)C[C@@H]1C [Example 33, 3-amino-6-(2,6-difluorophenyl)-N-(4-((1R,3R,4R,5S)-4-ethyl-3,4-dihydroxy-5-methylcyclohexyl)pyridin-3-yl)-5-fluoropicolinamide]
0.6 nM | 1.3 nM | 1.7 nM | 610 nM | – | – | – | – | CC[C@]1(O)[C@H](O)C[C@H](c2ccncc2NC(=O)c2nc(-c3c(F)cccc3F)ncc2N)C[C@@H]1C [Example 34, 5-amino-2-(2,6-difluorophenyl)-N-(4-((1R,3R,4R,5S)-4-ethyl-3,4-dihydroxy-5-methylcyclohexyl)pyridin-3-yl) pyrimidine-4-carboxamide]
0.9 nM | 2.3 nM | 2.9 nM | – | – | – | – | – | CC[C@]1(O)[C@H](O)C[C@H](c2ccncc2NC(=O)c2ccc(F)c(-c3c(F)cccc3F)n2)C[C@@H]1C [Example 41, 6-(2,6-difluorophenyl)-N-(4-((1R,3R,4R,5S)-4-ethyl-3,4-dihydroxy-5-methylcyclohexyl)pyridin-3-yl)-5-fluoropicolinamide]
0.4 nM | 2 nM | 2 nM | 1540 nM | – | – | – | – | CC(=O)OC[C@]1(O)[C@H](O)C[C@H](c2ccncc2NC(=O)c2ccc(F)c(-c3c(F)cccc3F)n2)C[C@@H]1C [Example 43, ((1S,2R,4R,6S)-4-(3-(6-(2,6-difluorophenyl)-5-fluoropicolinamido)pyridin-4-yl)-1,2-dihydroxy-6-methylcyclohexyl) methylacetate]
0.4 nM | 1.3 nM | 1.4 nM | 870 nM | – | – | – | – | C[C@H]1C[C@@H](c2ccncc2NC(=O)c2nc(-c3c(F)cccc3F)c(F)cc2N)C[C@@H](O)[C@]1(C)O [Example 48, 3-amino-6-(2,6-difluorophenyl)-N-(4-((1R,3R,4R,5S)-3,4-dihydroxy-4,5-dimethylcyclohexyl)pyridin-3-yl)-5-fluoropicolinamide]

— patent US20120225061A1, “TETRASUBSTITUTED CYCLOHEXYL COMPOUNDS AS KINASE INHIBITORS” (priority 2011, published 2012)
